Format in all cases: ADME, organism-based
A short description of data set [1]: Clearance in rat at 10 mg/kg, po. On the set-up: dose 10 mg/kg, route oral. As to conditions: in vivo.
Data set [2] can be described thus: Volume of distribution at steady state in rat at 10 mg/kg, po and 3 mg/kg, iv. As to conditions: in vivo, read-out: Vdss.
The nature of data set [3]: Oral bioavailability in rat at 10 mg/kg. The conditions noted are these: in vivo.
Data set [4] in a line: Half life in rat at 10 mg/kg, po and 3 mg/kg, iv. As to conditions: in vivo.

The term CL/F denotes the apparent clearance, not corrected for the fraction that reaches the circulation. As usually defined, the bioavailability is dose-corrected exposure relative to a reference, in per cent. High values mean good availability, low ones poor availability. One may read the half-life as how long it takes for the measured level to halve. Higher therefore signals slow decline.

Compound `COc1cc2nnc(C(N)=O)c(Nc3ccc(C)cc3F)c2cc1N1C[C@@H](C)N[C@@H](C)C1` showed a CL/F in data set [1] of 4 mL/min/kg. For the same compound, the Vd in data set [2] amounted to 1.6 L/kg. Besides, the bioavailability in data set [3] amounted to 61%. The compound further gave a half-life in data set [4] of 4.4 h.
The corresponding values for `COc1cc2nnc(C(N)=O)c(Nc3ccc(C)cc3F)c2cc1N1CCOCC1` are 60 mL/min/kg, 1.7 L/kg, 25% and 0.5 h.
The compound `COc1cc2nnc(C(N)=O)c(Nc3ccc(C)cc3F)c2cc1N1CCC(OC)CC1` came in with a CL/F in data set [1] of 58 mL/min/kg. The Vd in data set [2] came out at 1.8 L/kg. This compound yielded a bioavailability in data set [3] of 21%. The compound further had a half-life in data set [4] of 0.6 h.
In data set [1], `COc1cc2nnc(C(N)=O)c(Nc3ccc(C)cc3F)c2cc1N1CCN(C(=O)[C@@H](C)O)CC1` had a CL/F of 24 mL/min/kg. In data set [2], the Vd turned out to be 1.3 L/kg. This compound also showed a bioavailability in data set [3] of 53%. For the same compound, in data set [4], the half-life was 0.9 h.
On the same counts, the results for `COc1cc2nnc(C(N)=O)c(Nc3ccc(C)cc3F)c2cc1N1CCN(CCO)CC1` are 7 mL/min/kg, 2.2 L/kg, 42% and 3.1 h.
The compound `COc1cc2nnc(C(N)=O)c(Nc3ccc(C)cc3F)c2cc1N1CCN(C)CC1` yielded a CL/F in data set [1] of 12 mL/min/kg. The Vd in data set [2] stood at 3.8 L/kg. Moreover, in data set [3], the bioavailability was determined as 100%. The same compound had a half-life in data set [4] of 5.7 h.
Compound `COc1cc2nnc(C(N)=O)c(Nc3ccc(C)cc3F)c2cc1N1CCC(N(C)C)CC1` had a CL/F in data set [1] of 34 mL/min/kg. In data set [2], the Vd amounted to 2.2 L/kg. The bioavailability in data set [3] was determined as 15%. The half-life in data set [4] was 0.9 h.
The corresponding values for `COc1cc2nnc(C(N)=O)c(Nc3ccc(C)cc3F)c2cc1N1CCN(C(C)C)CC1` are 17 mL/min/kg, 3.8 L/kg, 100% and 2.5 h.
In data set [1], `COc1cc2nnc(C(N)=O)c(Nc3ccc(C)cc3F)c2cc1C1CCN(C(C)C)CC1` returned a CL/F of 14 mL/min/kg. Besides, in data set [2], the Vd is 2.6 L/kg. In data set [3], this compound gave a bioavailability of 100%. This compound also gave a half-life in data set [4] of 3.5 h.
In turn, `COc1cc2nnc(C(N)=O)c(Nc3ccc(C)cc3F)c2cc1C1CCN(CCO)CC1` gave a CL/F in data set [1] of 8 mL/min/kg. Also, the Vd in data set [2] stood at 3.1 L/kg. Moreover, in data set [3], the bioavailability stood at 100%. The compound also showed a half-life in data set [4] of 6.1 h.
On the same counts, the results for `COc1cc2nnc(C(N)=O)c(Nc3ccc(C)cc3F)c2cc1N1CCCN(CCO)CC1` are 66 mL/min/kg, 2.2 L/kg, 4% and 0.9 h.
Take `COc1cc2nnc(C(N)=O)c(Nc3ccc(C)cc3F)c2cc1N1CCN(S(C)(=O)=O)CC1`: the CL/F in data set [1] came to 22 mL/min/kg. Also, in data set [2], the Vd was 1.7 L/kg. In data set [3], this compound displayed a bioavailability of 3%. Moreover, the half-life in data set [4] was 1.5 h.
In data set [1], `COCCN1CCN(c2cc3c(Nc4ccc(C)cc4F)c(C(N)=O)nnc3cc2OC)CC1` had a CL/F of 21 mL/min/kg. Besides, the Vd in data set [2] came out at 4.3 L/kg. The same compound yielded a bioavailability in data set [3] of 3%. Moreover, the half-life in data set [4] was 7.6 h.

The values above are taken from ChEMBL document CHEMBL2406904, “Mitigation of cardiovascular toxicity in a series of CSF-1R inhibitors, and the identification of AZD7507” (Bioorg Med Chem Lett, 2013).
